Data published in PubChem BioAssay AID248 (DTP/NCI, 2004).
“And” between values parts separate entries of the source, which are not always exact repeats. Identical values can stand only once. Inconclusive results and toxic doses are left out. Cut-off read from the data, not from the text of the source: active = T/C of 150% or more; inactive = T/C below 125%.

System: L1210 leukemia ip in BDF1 mice, survival T/C
Assay: NCI In Vivo Anticancer Drug Screen. Data for tumor model L1210 Leukemia (intraperitoneal) in B6D2F1 (BDF1) mice
Details: endpoint: mean survival time, higher = longer survival
Summary of the method: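 Transplantable tumor model; survival measured in treated vs vehicle control mice. Value = treated/control.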

[1] = dose: 100.0 mg/kg/injection, schedule: Q01DX001 (ip), vehicle: carboxymethylcellulose (CMC)
[2] = dose: 200.0 mg/kg/injection, schedule: Q01DX001 (ip), vehicle: carboxymethylcellulose (CMC)
[3] = dose: 400.0 mg/kg/injection, schedule: Q01DX001 (ip), vehicle: carboxymethylcellulose (CMC)
[4] = dose: 50.0 mg/kg/injection, schedule: Q01DX009 (ip), vehicle: saline with Tween-80
[5] = dose: 100.0 mg/kg/injection, schedule: Q01DX009 (ip), vehicle: saline with Tween-80
[6] = dose: 100.0 mg/kg/injection, schedule: Q04DX003 (ip), vehicle: saline with Tween-80
[7] = dose: 100.0 mg/kg/injection, schedule: Q04DX003 (ip), vehicle: saline
[8] = dose: 100.0 mg/kg/injection, schedule: Q01DX009 (ip), vehicle: Klucel (hydroxypropylcellulose) (HPC)
[9] = dose: 200.0 mg/kg/injection, schedule: Q01DX009 (ip), vehicle: Klucel (hydroxypropylcellulose) (HPC)
[10] = dose: 400.0 mg/kg/injection, schedule: Q01DX009 (ip), vehicle: Klucel (hydroxypropylcellulose) (HPC)
[11] = dose: 200.0 mg/kg/injection, schedule: Q01DX009 (ip), vehicle: saline with Tween-80
[12] = dose: 200.0 mg/kg/injection, schedule: Q04DX003 (ip), vehicle: saline with Tween-80
[13] = dose: 25.0 mg/kg/injection, schedule: Q04DX003 (ip), vehicle: Klucel (hydroxypropylcellulose) (HPC)
[14] = dose: 50.0 mg/kg/injection, schedule: Q04DX003 (ip), vehicle: Klucel (hydroxypropylcellulose) (HPC)
[15] = dose: 100.0 mg/kg/injection, schedule: Q04DX003 (ip), vehicle: Klucel (hydroxypropylcellulose) (HPC)
[16] = dose: 200.0 mg/kg/injection, schedule: Q04DX003 (ip), vehicle: Klucel (hydroxypropylcellulose) (HPC)
[17] = dose: 400.0 mg/kg/injection, schedule: Q04DX003 (ip), vehicle: Klucel (hydroxypropylcellulose) (HPC)
[18] = dose: 100.0 mg/kg/injection, schedule: Q01DX001 (ip), vehicle: saline
[19] = dose: 200.0 mg/kg/injection, schedule: Q01DX001 (ip), vehicle: saline

Measured: T/C

Cc1cc2oc(=O)c3c(c2c(O)c1CN1CCCCC1)CCCC3
inactive: [1] 98 % of control | [2] 98 % of control | [3] 96 % of control

COc1ccc(C2C3CCC(C3)C2N)cc1 (stereo not given)
inactive: dose: 5.0 mg/kg/injection, schedule: Q04DX003 (ip), vehicle: saline 100 % of control | dose: 10.0 mg/kg/injection, schedule: Q01DX009 (ip), vehicle: saline with Tween-80 93 % of control | dose: 10.0 mg/kg/injection, schedule: Q04DX003 (ip), vehicle: saline 100 % of control and 97 % of control | dose: 20.0 mg/kg/injection, schedule: Q01DX009 (ip), vehicle: saline with Tween-80 91 % of control | dose: 20.0 mg/kg/injection, schedule: Q04DX003 (ip), vehicle: saline 97 % of control | dose: 25.0 mg/kg/injection, schedule: Q01DX009 (ip), vehicle: saline with Tween-80 90 % of control | dose: 40.0 mg/kg/injection, schedule: Q04DX003 (ip), vehicle: saline 96 % of control | [4] 95 % of control | [5] 88 % of control | [6] 100 % of control

CC12CCC(C1)C(C)(C)C2NCCCN1C(=O)c2ccc3c4c(ccc(c24)C1=O)C(=O)N(CCCNC1C2(C)CCC(C2)C1(C)C)C3=O (stereo not given)
inactive: dose: 25.0 mg/kg/injection, schedule: Q01DX009 (ip), vehicle: saline 102 % of control | dose: 25.0 mg/kg/injection, schedule: Q04DX003 (ip), vehicle: saline 98 % of control | dose: 50.0 mg/kg/injection, schedule: Q01DX009 (ip), vehicle: saline 117 % of control | dose: 50.0 mg/kg/injection, schedule: Q04DX003 (ip), vehicle: saline 94 % of control | [7] 96 % of control and 90 % of control

COc1ccc(/C=N/NC(=O)c2ccccc2NC(=O)c2ccccc2Cl)cc1
inactive: dose: 50.0 mg/kg/injection, schedule: Q01DX009 (ip), vehicle: Klucel (hydroxypropylcellulose) (HPC) 91 % of control | [8] 107 % of control and 91 % of control | [9] 102 % of control | [10] 98 % of control and 91 % of control

COc1cccc(CC(C)(C)CCO)c1
inactive: [4] 102 % of control | [5] 100 % of control | [11] 96 % of control

O=C(C1C2CCC(C2)C1C(=O)N1CCCCC1)N1CCCCC1 (stereo not given)
inactive: [6] 100 % of control | [12] 100 % of control | dose: 400.0 mg/kg/injection, schedule: Q04DX003 (ip), vehicle: saline with Tween-80 100 % of control

O=[N+]([O-])c1cccc(-c2cnc(-c3ccccc3)cc2-c2ccccc2O)c1
inactive: dose: 100.0 mg/kg/injection, schedule: Q04DX002 (ip), vehicle: saline with Tween-80 94 % of control | dose: 200.0 mg/kg/injection, schedule: Q04DX002 (ip), vehicle: saline with Tween-80 94 % of control | dose: 400.0 mg/kg/injection, schedule: Q04DX002 (ip), vehicle: saline with Tween-80 102 % of control

C1=C(c2ccccc2)CC2CCCC1N2Cc1ccccc1 (stereo not given)
inactive: dose: 12.5 mg/kg/injection, schedule: Q04DX003 (ip), vehicle: Klucel (hydroxypropylcellulose) (HPC) 102 % of control | [13] 102 % of control | [14] 94 % of control

C=CCc1cc(CNCCCO)c(O)c(OC)c1
inactive: [13] 93 % of control | [14] 95 % of control | [15] 93 % of control

Cc1cc(C)c(N(CC(=O)O)S(=O)(=O)c2ccccc2)c(Sc2ccccc2)c1
inactive: dose: 100.0 mg/kg/injection, schedule: Q01DX001 (ip), vehicle: Klucel (hydroxypropylcellulose) (HPC) 113 % of control | dose: 200.0 mg/kg/injection, schedule: Q01DX001 (ip), vehicle: Klucel (hydroxypropylcellulose) (HPC) 98 % of control | dose: 400.0 mg/kg/injection, schedule: Q01DX001 (ip), vehicle: Klucel (hydroxypropylcellulose) (HPC) 100 % of control

O=C1CCCCCCCS(=O)(=O)C1
inactive: dose: 75.0 mg/kg/injection, schedule: Q01DX001 (ip), vehicle: carboxymethylcellulose (CMC) 112 % of control | dose: 150.0 mg/kg/injection, schedule: Q01DX001 (ip), vehicle: carboxymethylcellulose (CMC) 104 % of control

CCOC(=O)CN1C(=O)CN=C(c2ccccn2)c2cc(Cl)ccc21
inactive: [5] 91 % of control | [11] 93 % of control

O=C(CC(c1ccccc1)C(C(CC(=O)c1ccccc1)c1ccccc1)[N+](=O)[O-])c1ccccc1 (stereo not given)
inactive: [1] 92 % of control | [15] 87 % of control | [2] 95 % of control | [16] 89 % of control | [3] 92 % of control | [17] 86 % of control

O=C(Nc1ccc(Cl)cc1C(=O)c1ccccc1)c1ccc(Cl)cc1Cl
inactive: dose: 100.0 mg/kg/injection, schedule: Q04DX002 (ip), vehicle: Klucel (hydroxypropylcellulose) (HPC) 103 % of control | dose: 400.0 mg/kg/injection, schedule: Q04DX002 (ip), vehicle: Klucel (hydroxypropylcellulose) (HPC) 89 % of control

C[N+](C)(C)CCO
inactive: dose: 50.0 mg/kg/injection, schedule: Q04DX003 (ip), vehicle: none 99 % of control and 105 % of control | dose: 100.0 mg/kg/injection, schedule: Q04DX003 (ip), vehicle: none 97 % of control and 102 % of control | [7] 95 % of control | dose: 200.0 mg/kg/injection, schedule: Q04DX003 (ip), vehicle: none 96 % of control and 99 % of control | dose: 200.0 mg/kg/injection, schedule: Q04DX003 (ip), vehicle: saline 96 % of control | dose: 400.0 mg/kg/injection, schedule: Q04DX003 (ip), vehicle: saline 106 % of control

Cc1c(C(=O)O)no[n+]1[O-]
inactive: dose: 100.0 mg/kg/injection, schedule: Q04DX002 (ip), vehicle: saline 104 % of control | dose: 200.0 mg/kg/injection, schedule: Q04DX002 (ip), vehicle: saline 95 % of control | dose: 400.0 mg/kg/injection, schedule: Q04DX002 (ip), vehicle: saline 87 % of control

C/C(=C\C(=O)Nc1ncn[nH]1)Nc1ncn[nH]1
inactive: [8] 100 % of control | [15] 95 % of control | [9] 92 % of control | [16] 106 % of control | [10] 102 % of control | [17] 93 % of control

COC(=O)/C=C(\C)Nc1ccc(Cc2ccc(N/C(C)=C/C(=O)OC)cc2)cc1
inactive: [18] 95 % of control | [19] 86 % of control

COC(=O)C(=O)CC(=O)c1cccc(Cl)c1
inactive: dose: 10.0 mg/kg/injection, schedule: Q04DX002 (ip), vehicle: Klucel (hydroxypropylcellulose) (HPC) 92 % of control | dose: 20.0 mg/kg/injection, schedule: Q04DX002 (ip), vehicle: Klucel (hydroxypropylcellulose) (HPC) 96 % of control | dose: 40.0 mg/kg/injection, schedule: Q04DX002 (ip), vehicle: Klucel (hydroxypropylcellulose) (HPC) 105 % of control

O=C(NCCCCCCCNC(=O)Nc1ccc(C2=NCCN2)cc1)Nc1ccc(C2=NCCN2)cc1
inactive: dose: 62.0 mg/kg/injection, schedule: Q01DX Z (ip), vehicle: carboxymethylcellulose (CMC) 107 % of control | dose: 125.0 mg/kg/injection, schedule: Q01DX Z (ip), vehicle: carboxymethylcellulose (CMC) 98 % of control | dose: 250.0 mg/kg/injection, schedule: Q01DX Z (ip), vehicle: carboxymethylcellulose (CMC) 98 % of control

Cc1cccc2c(Cl)c3cccc(C)c3nc12
inactive: [8] 96 % of control | dose: 100.0 mg/kg/injection, schedule: Q04DX003 (ip), vehicle: other 95 % of control | [9] 93 % of control | dose: 200.0 mg/kg/injection, schedule: Q04DX003 (ip), vehicle: other 94 % of control | [10] 102 % of control | dose: 400.0 mg/kg/injection, schedule: Q04DX003 (ip), vehicle: other 97 % of control

Nc1ncnc2nc(I)[nH]c12
inactive: [18] 93 % of control | [19] 98 % of control

O=C(CCCN1CC=C(N2CCc3ccccc32)CC1)c1ccc(F)cc1
inactive: [6] 102 % of control | [12] 102 % of control
